The values below come from US20110059122A1, “Inhibition of the Survival of Oral Cavity Cancer by Cyclohexenone Compounds from Antrodia Camphorata” (GOLDEN BIOTECHNOLOGY CORPORATION, priority 2009, published 2011).

The test system of the assay is oral cavity cancer cell line SCC-25. In words: In vitro survival assay (MTT) for anti-oral cavity cancer effects. The note with it: Homo sapiens, SCC-25 cells, 48 hours treatment, absorbance 570 nm, read-out: IC50 (half inhibition concentration), survival of oral cavity cancer cells. It is filed as cell-based. On the procedure:
Inhibiting effects of oral cavity cancer cells by cyclohexenone compounds of Antrodia camphorata from example 1 were assessed according to the anticancer-drug screening model of National Cancer Institute (NCI). The compound 4-hydroxy-2,3-dimethoxy-6-methyl-5-(3,7,11-trimethyl-dodeca-2,6,10-trienyl)-cyclohex-2-enone from example 1 was added into the culture media of oral cavity cancer cell line SCC-25 to determine the survival rates. Survival of cell was analyzed using MTT assay. SCC-25 cell line was a human squamous cell carcinoma cell line.
MTT assay is commonly used to analyze cell proliferation, survival rate of viable cells and cytotoxicity. MTT (3[4,5-dimethylthiazol-2-yl]-2,5-diphenyltetrazolium bromide) is a yellow dye which can be converted to water-insoluble purple formazan on the reductive cleavage of its tetrazolium ring by the succinate tetrazolium reductase in mitochondria of cells. The amount of formazan produced is used to detect the number of viable cells and calculate the survival rates.
The SCC-25 cells were cultivated in DMEM/F12(1:1) medium supplemented with 10% fetal bovine serum and 400 ng/ml of hydrocortisone at 37° C., 5% CO2 for 24 hours. Proliferated cells were washed once with PBS, treated with 1× trypsin-EDTA, and centrifuged at 1200 rpm for 5 min. […] The absorbances were measured at 570 nm with an ELISA Reader to determine the survival rates.

For `COC1=C(OC)C(O)C(C/C=C(\C)CC/C=C(\C)CCC=C(C)C)C(C)C1=O` (stereo not shown) [formula 2, 4-hydroxy-2,3-dimethoxy-6-methyl-5-(3,7,11-trimethyl-dodeca-2,6,10-trienyl)-cyclohex-2-enone], the IC50 was determined as 1.05 µg/mL.
